The text below walks through data of ChEMBL document CHEMBL4811315, “Design, synthesis and biochemical evaluation of novel carbonic anhydrase inhibitors triggered by structural knowledge on hCA VII” (Bioorg Med Chem, 2021).

For the assay, the target named is Carbonic anhydrase 9 (Homo sapiens, UniProt Q16790).
Description: Inhibition of full length human CA9 incubated for 15 mins by phenol red dye based stopped flow CO2 hydration assay
Consider `NS(=O)(=O)c1ccc(C(=O)N2CCN(C(=O)c3ccc([N+](=O)[O-])o3)CC2)cc1`, for which the affinity corresponds to a Ki of 976 nM.
As to `NS(=O)(=O)c1ccc(C(=O)N2CCN(C(=O)c3cc4ccccc4o3)CC2)cc1`, the Ki turned out to be 2940 nM.
`NS(=O)(=O)c1ccc(C(=O)N2CCN(C(=O)c3ccc[nH]3)CC2)cc1` gave a Ki of 277 nM.
Take `NS(=O)(=O)c1ccc(C(=O)N2CCN(C(=O)c3ccco3)CC2)cc1`: the affinity corresponds to a Ki of 3170 nM.
The compound `NS(=O)(=O)c1ccc(C(=O)N2CCN(C(=O)c3sccc3Br)CC2)cc1` displayed a Ki of 125 nM.
In turn, `NS(=O)(=O)c1ccc(C(=O)N2CCN(C(=O)c3cc4ccccc4s3)CC2)cc1` gave a Ki of 97.9 nM.
With `Cc1ccsc1C(=O)N1CCN(C(=O)c2ccc(S(N)(=O)=O)cc2)CC1` the figure was 2920 nM.
Turning to `NS(=O)(=O)c1ccc(C(=O)N2CCN(C(=O)c3cccs3)CC2)cc1`, the affinity corresponds to a Ki of 3280 nM.
Compound `NS(=O)(=O)c1ccc(C(=O)N2CCN(C(=O)c3ccc(Cl)s3)CC2)cc1` showed a Ki of 382 nM.
`NS(=O)(=O)c1ccc(C(=O)N2CCN(C(=O)c3ccc4ccccc4c3)CC2)cc1`: the Ki worked out at 2990 nM.
With `NS(=O)(=O)c1ccc(C(=O)N2CCN(C(=O)c3cc4ccccc4[nH]3)CC2)cc1` the figure was 9.2 nM; with `Cc1ccoc1C(=O)N1CCN(C(=O)c2ccc(S(N)(=O)=O)cc2)CC1`, 3050 nM.
`NS(=O)(=O)c1ccc(C(=O)N2CCN(C(=O)c3ccc([N+](=O)[O-])s3)CC2)cc1` came in with a Ki of 171 nM.

As a reminder, the Ki is a dissociation constant, usually derived from enzyme kinetics or from competition with a known ligand.
